Residues, ends and D or L forms follow the SMILES beside them.
What was measured:
[1] = system: chicken red blood cells (ch-RBCs); type: cell-based
Protocol: The ability of EC5 to induce hemolysis of chicken red blood cells (ch-RBCs) was assessed as previously described (Pathak, S. and Chauhan, V. S. (2011) Antimicrob. Agents Chemother. 55, 2178-2188). Red blood cells were harvested and washed with phosphate-buffered saline (PBS). 1% (vol/vol) suspension was made with PBS. 100 μl and 50 μl of this RBC suspension were transferred to 96-well microtiter plates. Two-fold serial dilutions of the peptide samples were prepared and added to the RBCs. The reaction mixture was incubated at 37° C. for 24 h in microtiter plates. Results were visually determined.
The hemolytic activity of EC5 against chRBCs was determined as a measure of peptide toxicity toward higher eukaryotic cells (Yount, N. Y., et al., (2011) PLoS. One. 6, e26727; Tachi, T., et al., Biochemistry 41, 10723-10731). MHC is the maximal peptide concentration that produces no hemolysis after 24 h of incubation at 37° C.

[2] = system: E. coli; assay: Membrane permeability by PI and SYTO9 uptake (LIVE/DEAD BACLIGHT); type: cell-based; conditions: SYTO9 and PI staining
Protocol: (§1) The effects of EC5 on the membrane integrity of E. coli and P. aeruginosa cells were assessed using the LIVE/DEAD BACLIGHT™ kit (Invitrogen, Oregon) according to the manufacturer's protocol. Membrane integrity of the cells after the addition of different concentrations of peptide EC5 was measured using fluorescence micro plate reader (BioTek Instruments, Winooski, Vt.). Experiments were done in triplicates. PMB was used as a positive control.
(§2) The membrane permeabilizing activity of EC5 was also studied using the SYTO9 and PI staining method. SYTO9 stain labels both live and dead bacteria when alone, but propidium iodide stains only cells with damaged membranes, reducing the level of green fluorescent SYTO9 when both the dyes are present. […] The ratio of green versus red fluorescence can be calculated as a measure of live bacteria. […] Polymyxin B, an AMP with a net charge of +5 with membrane permeabilizing activity was used as positive control.

[3] = system: P. aeruginosa; assay: as above; type: cell-based; conditions: SYTO9 and PI staining
Protocol: as §1, §2

[4] = system: E. coli; assay: Cytoplasmic membrane depolarization assay (diSC3-5) with parallel CFU plating; type: cell-based; conditions: EC5 at 8 μg/ml and 16 μg/ml
Protocol: (§3) Membrane depolarization activity (Δψ) of the peptide was determined with intact E. coli and P. aeruginosa cells and the membrane potential-sensitive fluorescent dye, 3,3′-dipropylthiadicarbocyanine Iodide (diSC (3)5) (Invitrogen, Oregon), according to described methods (Sims, P. J., et al (1974) Biochemistry 13, 3315-3330). Briefly, bacterial cells of mid-logarithmic phase were harvested by centrifugation and washed twice with HEPES buffer (5 mM HEPES, 5 mM glucose, pH 7.6). The cells were suspended in the same buffer to an OD of 0.05. The cell suspension was incubated with […] diSC (3)5 until maximal uptake of the dye. 100 mM KCl was added to equilibrate the cytoplasmic and external potassium ion concentration of peptide, and fluorescence was monitored at an excitation wavelength of 622 nm and an emission wavelength of 670 nm. Polymyxin B was used as a positive control and S. aureus cells were used as negative control. Simultaneously the cells were plated on NA plates and incubated at 37° C. overnight to assess the number of CFU.
(§4) Cytoplasmic depolarization assay(Δψ) was performed using the membrane potential sensitive dye 3,3′-dipropylthiadicarbocyanine iodide (diSC3-5) (Zang, L. et al., (2001) J. Biol. Chem. 276, 35714-35722). This dye can cross the outer membrane of the bacterial cell and become concentrated in the cytoplasmic membrane and thereby it self-quenches its own fluorescence. Upon addition of a membrane-permeabilizing agent the dye is released with consequent increase in the fluorescence. EC5 at 8 μg/ml and 16 μg/ml caused rapid depolarization of the cytoplasmic membrane in both E. coli and P. aeruginosa resulting in the release of diSC3-5 within 5 min (FIG. 9C). […] However Polymyxin B even at its MIC of 0.5 μg/ml caused slow release of diSC3-5 when compared to EC5.

[5] = system: P. aeruginosa; assay: as above; type: cell-based; conditions: EC5 at 8 μg/ml and 16 μg/ml
Protocol: as §3, §4

[6] = system: E. coli cells; assay: Whole-cell ELISA binding of biotinylated peptide; conditions: EC5 50 μg/ml; p<0.001
Protocol: (§5) ELISA. Log-phase cultures of bacteria were centrifuged at 3,000×g. The cell pellet was resuspended and 10-fold serial dilutions were made in 1×PBS. Bacterial cell suspension at a concentration of 10^3 CFU was coated to the wells of 96-well micro plate (Becton Dickinson, Bedford, Mass.) and incubated overnight at RT. Subsequently, cells were fixed in ethanol (Aldrich Chemical Company, Milwaukee, Wis.) for 10 minutes (min) and the plates were air-dried. Wells were blocked with 5% bovine serum albumin (BSA) (Sigma, St. Louis, Mo.) for 60 min at room temperature (RT), rinsed with PBS and then EC5 peptide suspended in phosphate buffered saline (PBS) at a final concentration of 50 μg/ml were added to all the wells and incubated for 15 min. Following incubation, wells were washed 3 times with PBST buffer (PBS pH 7.4, 0.01% Tween 20). The wells were further incubated with 1:10,000 dilution of streptavidin-HRP conjugate (Upstate, Temecula, Calif.) for 15 min and washed with PBST buffer. Tetramethylbenzidine (TMB) membrane peroxidase substrate (Zymed Laboratories, Carlsbad, Calif.) system was used to detect the enzyme label in accordance with the manufacturer's instructions. The color development in the 96-well plate was recorded by using SYNERGY 4™ BioTek micro plate reader (BioTek Instruments, Winooski, Vt.) at 490 nm wavelength.

[7] = system: P. aeruginosa cells; assay: Whole-cell ELISA binding of biotinylated peptide; conditions: EC5 50 μg/ml; p<0.05
Protocol: as §5

[8] = system: S. epidermidis; assay: Whole-cell ELISA binding of biotinylated peptide; conditions: EC5 50 μg/ml
Protocol: as §5

[9] = system: K pneumoniae; assay: Whole-cell ELISA binding of biotinylated peptide; conditions: EC5 50 μg/ml
Protocol: as §5

[10] = system: B. cereus; assay: Whole-cell ELISA binding of biotinylated peptide; conditions: EC5 50 μg/ml
Protocol: as §5

[11] = system: S. aureus; assay: Whole-cell ELISA binding of biotinylated peptide; conditions: EC5 50 μg/ml
Protocol: as §5

SMILES: CC[C@H](C)[C@H](NC(=O)[C@H](CCCCN)NC(=O)[C@H](CCCNC(=N)N)NC(=O)[C@H](Cc1ccccc1)NC(=O)[C@H](CC(C)C)NC(=O)[C@H](CC(C)C)NC(=O)[C@@H](N)CCCNC(=N)N)C(=O)N[C@@H](CCCNC(=N)N)C(=O)N[C@@H](CCCNC(=N)N)C(=O)N[C@@H](CC(C)C)C(=O)N[C@@H](CCCCN)C(=O)N[C@@H](CCCNC(=N)N)C(=O)O [EC5, RLLFRKIRRLKR] (H-RLLFRKIRRLKR-OH; N-terminus and C-terminus assumed)
- therapeutic index (MIC versus concentrations inducing hemolysis) [1]: favorable
- concentration showing maximum permeability of cells [2]: 6.25 µg/mL
- concentration showing maximum permeability of cells [3]: 12.5 µg/mL
- time to complete inhibition of CFU [4]: ≤ 5 min
- time to release of diSC3-5 (depolarization of the cytoplasmic membrane) [4]: ≤ 5 min
- time to complete inhibition of CFU [5]: ≤ 5 min
- time to release of diSC3-5 (depolarization of the cytoplasmic membrane) [5]: ≤ 5 min
- binding to E. coli cells [6]: significant binding efficiency
- binding to P. aeruginosa cells [7]: showed binding
- binding to S. epidermidis [8]: did not bind
- binding to K pneumoniae [9]: did not bind
- binding to B. cereus [10]: did not bind
- binding to S. aureus [11]: did not bind

From US9243036B2, “Anti-microbial activity of synthetic peptides” (THE UNITED STATES OF AMERICA, as represented by the …, priority 2012, dated 2016)
